In patent US6902748B1, “Medicines manufactured from old platycodon extracts” (Jang Saeng Doraji Co., Ltd, priority 1999, dated 2005):

Tested on: edema of both feet of SD-rats
Assay: Edema suppression in rheumatic arthritis model (heat-killed Mycobacterium injected into right sole)
Format: in vivo
Details: 4 mg/day; about 20 days after injection
Method: At about 20 days after injection of 0.6 mg/kg heat-killed 5. Mycobacterium histolyticm to the right sole of the feet of SD-rats, the degree of inhibition against inflammation was investigated by measuring the size of edema of both feet. The rats were divided into 7 groups and examined; feed group (group A) as a control group, not being caused edema, group B which was fed with 4 mg/day of predisolone as edema suppression agents, group C which was fed with 160 mg/day of ordinary platycodon extract, group D which was fed with 20 mg/day of 14 kinds of herbal medicine extract, group E which was fed with 160 mg/day of the old platycodon extract, group F which was fed with 40 mg/day of herbal medicine extract and 160 mg/day of the old platycodon extract. Each group was assigned to have 6 SD-rats.

For `C[C@]12C=CC(=O)C=C1CC[C@@H]1[C@@H]2[C@@H](O)C[C@@]2(C)[C@H]1CC[C@]2(O)C(=O)CO` [predisolone], the “Edema suppression activity in the left foot” value was 83.8% and the “Edema suppression activity in the right foot” value was 84.5%.
